One compound from patent EP4417616A1, “LXR ANTAGONISTS” (Ospedale San Raffaele S.r.l., priority 2023, dated 2024) can be followed below.

The test system of experiment [1] is MC-38-OVA-liver metastases. Type of experiment: in vivo, mice. The following applies: 1440 h. The method, then: (§1) . Forty-eight hours later the cells were differentiated and expanded by IL-7/IL15 (5ng/ml both cytokines) with or without PFM037. Ten, 12 and 15 days later, FACS analysis was performed to evaluate their differentiation status. […]. Then, mice bearing MC-38-OVA-liver metastases were treated with vehicle, or OT-I T cells expanded with IL-2 (effectors), or IL-7/IL15 with or without PFM037. Tumor-bearing mice injected with vehicle were all dead 40 days after tumor injection. Twenty percent of tumor-bearing mice treated with OT-I T cells expanded with IL-2 were alive at 60 days, whereas 50% and 80% of tumor-bearing mice treated with IL-7/IL15 with or without PFM037, respectively, were alive at 60 days (Fig. 20). […].

For another experiment, the system named is LLC tumors. As to the kind of experiment: NMR lipidomic profiling of LLC tumors. As to conditions: PFM037-treated vs vehicle-treated LLC tumors.
For the next experiment, the system named is OT-I T cells. As to the kind of experiment: In vitro differentiation and expansion of activated OT-I T cells by IL-7/IL15. Type of experiment: cell-based, mouse. The protocol: as §1
Experiment [2] deals with B16F1 melanoma expressing OVA. Nature of the experiment: Antitumor activity of expanded OT-I T cells in mice bearing B16F1 melanoma expressing OVA. As to conditions: 7-day established tumors; vs OT-I expanded with IL-2 or IL-7/IL15 without PFM037. Type of experiment: in vivo. The method, then: To evaluate whether PFM037 induces functional and phenotypic changes of in vitro activated OT-T cells, OT-I T cells were activated in the presence of anti-CD3/CD28 coated beads and IL-2. Forty-eight hours later the cells were differentiated and expanded by IL-7/IL15 (5ng/ml both cytokines) with or without PFM037. Ten, 12 and 15 days later, FACS analysis was performed to evaluate their differentiation status. […] T cells expanded by IL7 and II,15 in the presence of PFM037 also expressed at higher levels the sternness markers Sca1, Tcf1 and CXCR3. […] First, OT-I T cells expanded with IL-2 (effectors) or IL-7/ILIS with or without PFM037 (memory T cells) were injected in mice bearing 7-day established B16F1 melanoma expressing OVA. […] Then, mice bearing MC-38-OVA-liver metastases were treated with vehicle, or OT-I T cells expanded with IL-2 (effectors), or IL-7/IL15 with or without PFM037. Tumor-bearing mice injected with vehicle were all dead 40 days after tumor injection. Twenty percent of tumor-bearing mice treated with OT-I T cells expanded with IL-2 were alive at 60 days, whereas 50% and 80% of tumor-bearing mice treated with IL-7/IL15 with or without PFM037, respectively, were alive at 60 days (Fig. 20). […]

Experiment [3] can be described thus: Blood plasma chemistry analysis (plasma lipids). As to conditions: tumor-bearing mice; PFM037 (0.4 µg/day); Fig. 5N. It counts as in vivo. The method, then:
Blood Plasma Chemistry Analysis. For all in vivo experiments mouse blood samples were collected via cardiac puncture and isolated plasma was analyzed by the COBAS c311 system (Roche) for plasma lipids.

[4] abbreviates: OT-I T cells expanded by IL-7/IL15 with PFM037, FACS at 10, 12 and 15 days.

Experimental for LLC tumors: Extraction of the lipidic and polar fractions from tumor tissues. […] They were resuspended in 170 µL of H2O and 700 µL of methanol and sonicated for 60 sec. Then, 350 µL of chloroform were added and mixed the samples on an orbital shaker in ice for 10 minutes. After that, 350 µL of H2O/chloroform (1:1, v/v) were added to each suspension and centrifuged at 4000 rpm for 10 minutes at 4°C. Thereafter, the aqueous (polar) and lipidic (non-polar) phases were collected separately, transferred to a glass vial and evaporated.
^1H NMR spectra acquisition and data analysis. All the lipidic and polar samples were analyzed using Nuclear Magnetic Resonance (NMR). The lipidic fractions were dissolved in 700 µL of deuterated chloroform (CDCl3) and 0.03 volume percentage of tetramethylsilane (TMS) and inserted in NMR tubes whereas the polar fractions were dissolved in 630 µL of PBS-D2O with the pH adjusted to 7.20, and 70 µL of trimethylsilylpropanoic acid (TSP) (1% in D2O). TMS and TSP were used as the internal standards. […] All ^1H NMR spectra were manually phased and baseline-corrected and referenced to the CH3 resonance of TSP or TMS at 0 ppm. The spectral 0.50-8.60 ppm region of ^1H-NMR spectra was integrated in buckets of 0.04 ppm by AMIX package (Bruker, Biospin, Germany). […]

With `CC(C)CC[C@H](O)[C@@H](C)[C@H]1CC[C@H]2[C@@H]3CC=C4C[C@@H](OS(=O)(=O)[O-])CC[C@]4(C)[C@H]3CC[C@]12C.[Na+]` [PFM037, 22(S)-Hydroxycholesterol-3-sulfate sodium salt], the “tumor-bearing mice alive at 60 days” value in experiment [1] stood at 50%. For the same compound, in the experiment with LLC tumors, the “proton signals of ω-3 fatty acid docosahexaenoic acid and its derivatives” value is “lower levels”; the “proton signals of ω-6 fatty acid arachidonic acid and its derivatives” value is reported as “enriched”. For the same compound, in the experiment with OT-I T cells (setting [4]), the “CD39 and CD69 markers” value was “progressively lost”; the “CD62L and CD44low markers” value is listed as “progressively acquiring”. Besides, the “stemness markers Sca1, Tcf1 and CXCR3” value in the experiment with OT-I T cells (T cells expanded by IL7 and IL15 in the presence of PFM037) was “higher levels”. Besides, the “tumor growth control by OT-I T cells expanded with PFM037” value in experiment [2] was “significantly better”. Further, in experiment [3], the “plasma HDL” value was “reduced levels”, the “plasma LDL” value was “did not change”, the “plasma not esterified fatty acids” value is reported as “reduced levels” and the plasma total cholesterol result is on record as “reduced levels”. Also, the plasma triglycerides entry in experiment [3] was “reduced levels”.
